According to ChEMBL document CHEMBL4819136, “Design and synthesis of garlic-related unsymmetrical thiosulfonates as potential Alzheimer's disease therapeutics: In vitro and in silico study” (Bioorg Med Chem, 2021):

What was measured:
Cholinesterase = Cholinesterase (Homo sapiens, UniProt P06276); test: Inhibition of human serum BuChE using butyrylthiocholine iodide as substrate preincubated with enzyme for 10 mins followed by substrate addition and measured by Ellman's method; assay type: cell-free
Chain of Cholinesterase (P06276 whole entry): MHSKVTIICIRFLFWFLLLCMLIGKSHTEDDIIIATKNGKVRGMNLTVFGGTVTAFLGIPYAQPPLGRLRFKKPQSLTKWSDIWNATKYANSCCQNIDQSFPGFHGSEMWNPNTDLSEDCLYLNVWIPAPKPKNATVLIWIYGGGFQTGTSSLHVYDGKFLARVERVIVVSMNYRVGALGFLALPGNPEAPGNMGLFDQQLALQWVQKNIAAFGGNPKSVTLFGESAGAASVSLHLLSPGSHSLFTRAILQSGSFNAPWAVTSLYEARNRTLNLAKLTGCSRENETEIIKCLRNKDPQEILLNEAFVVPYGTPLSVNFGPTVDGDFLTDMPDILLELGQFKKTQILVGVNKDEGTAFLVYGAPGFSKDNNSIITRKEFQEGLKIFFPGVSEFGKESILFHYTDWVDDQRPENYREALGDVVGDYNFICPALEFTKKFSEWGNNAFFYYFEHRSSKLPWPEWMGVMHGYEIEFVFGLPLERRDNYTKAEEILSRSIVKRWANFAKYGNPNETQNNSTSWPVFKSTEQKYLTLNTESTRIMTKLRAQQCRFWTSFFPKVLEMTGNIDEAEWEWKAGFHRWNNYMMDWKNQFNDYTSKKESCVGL

Acetylcholinesterase [1] = target: T1, Acetylcholinesterase (Homo sapiens, UniProt P22303)
T1 sequence (P22303 whole entry): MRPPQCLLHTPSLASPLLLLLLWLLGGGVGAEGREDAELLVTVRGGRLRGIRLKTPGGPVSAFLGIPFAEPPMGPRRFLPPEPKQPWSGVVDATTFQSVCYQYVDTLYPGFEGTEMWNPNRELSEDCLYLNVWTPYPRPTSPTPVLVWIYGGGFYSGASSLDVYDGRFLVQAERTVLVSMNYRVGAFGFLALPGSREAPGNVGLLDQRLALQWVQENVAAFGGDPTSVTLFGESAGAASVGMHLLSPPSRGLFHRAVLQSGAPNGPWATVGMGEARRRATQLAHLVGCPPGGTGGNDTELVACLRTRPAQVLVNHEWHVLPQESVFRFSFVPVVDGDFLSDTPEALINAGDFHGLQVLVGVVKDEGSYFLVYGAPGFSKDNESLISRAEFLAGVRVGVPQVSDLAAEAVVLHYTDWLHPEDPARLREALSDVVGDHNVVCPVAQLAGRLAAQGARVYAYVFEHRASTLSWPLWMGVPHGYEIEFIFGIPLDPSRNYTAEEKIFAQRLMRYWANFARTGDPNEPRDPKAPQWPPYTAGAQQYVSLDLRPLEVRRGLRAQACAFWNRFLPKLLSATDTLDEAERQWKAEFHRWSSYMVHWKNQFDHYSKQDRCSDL
Description: Inhibition of human recombinant AChE using acetylthiocholine iodide as substrate preincubated with enzyme for 10 mins followed by substrate addition and measured by Ellman's method

Acetylcholinesterase [2] = target: T1, Acetylcholinesterase; test: Potency index, ratio of rivastigmine IC50 to test compound IC50 for human recombinant AChE using acetylthiocholine iodide as substrate preincubated with enzyme for 10 mins followed by substrate addition and measured by Ellman's method

Compound | IC50 (Cholinesterase) | Ki (Cholinesterase) | IC50 (Acetylcholinesterase [1]) | Ki (Acetylcholinesterase [1]) | Ratio IC50 (Acetylcholinesterase [2])
Cc1ccc(S(=O)(=O)SCc2ccc([N+](=O)[O-])cc2)cc1 | 214 nM | 303 nM | 212 nM | 251 nM | –
Cc1ccc(S(=O)(=O)SCc2ccc(C(C)C)cc2)cc1 | 84.5 nM | 37.9 nM | 11.9 nM | 25.6 nM | 5
Cc1ccc(S(=O)(=O)SCc2ccc(C#N)cc2)cc1 | 203 nM | 201 nM | 196 nM | 166 nM | –
COc1ccc(CSS(=O)(=O)c2ccc(C)cc2)cc1 | 202 nM | 251 nM | 488 nM | 219 nM | –
Cc1ccc(S(=O)(=O)SCc2ccc(OC(F)(F)F)cc2)cc1 | 53.3 nM | 17.5 nM | 129 nM | 198 nM | –
Cc1ccc(S(=O)(=O)SCc2ccc(C(F)(F)F)cc2)cc1 | 118 nM | 103 nM | 86.6 nM | 148 nM | –
Cc1ccc(S(=O)(=O)SCc2ccc(F)cc2)cc1 | 303 nM | 208 nM | 313 nM | 327 nM | –
Cc1ccc(S(=O)(=O)SCc2ccccc2)cc1 | 318 nM | 218 nM | 517 nM | 390 nM | –
Cc1ccc(S(=O)(=O)SCc2ccc(Cl)cc2)cc1 | 315 nM | 199 nM | 478 nM | 714 nM | –
